{"source": "patent US7388012B2", "about": "“(Hydrazido)(amino)thiophene compounds” (OSI Pharmaceuticals, Inc., priority 2004, dated 2008)", "origin": "cited, not measured here", "key": {"[1]": {"tested_on": "MO7e human leukemia cells"}, "[2]": {"tested_on": "MO7e human leukemia cells", "remark": "listed apart in the source"}}, "note": "Where a name gives a salt, the structure may show the parent alone.", "data": [{"molecule": "Cc1ccc(NC(=O)c2ccc(CN3CCN(C)CC3)cc2)cc1Nc1nccc(-c2cccnc2)n1", "note": "[Gleevec, imatinib mesylate]", "values": [{"measurement": "GM-CSF stimulated growth of MO7e human leukemia cells", "setting": "[1]", "value": "not affected"}, {"measurement": "Kit ligand-stimulated growth of MO7e human leukemia cells", "setting": "[2]; Kit ligand-stimulated", "value": "inhibited"}, {"measurement": "apoptosis of MO7e human leukemia cells", "setting": "[2]; Kit ligand-stimulated conditions", "value": "induces apoptosis"}]}]}
